# Experimental data as given in US4259235A, “Tricyclic nitrogenous compounds having string plant growth regulating properties” (BASF Aktiengesellschaft, priority 1977, dated 1981).
# Where two headings read alike, the source gives them in different places.
# Assays:
# Setar. spp. = test: Removal and inhibition of unwanted plants, preemergence, greenhouse; format: in vivo
# Procedure: (§1) Plastic flowerpots having a volume of 300 cm^3 were filled with a sandy loam and the test plants placed therein (either as seed, as vegetatively reproduced species, or as potted plants, e.g., vines). For preemergence treatment, the active ingredients were suspended or emulsified in water as vehicle and sprayed onto the surface of the soil immediately after sowing by means of finely distributing nozzles. The potted vines were treated by spraying them with the correspondingly diluted liquor. For postemergence treatment, the agents were, as stated above, sprayed in water onto the leaves of the test plants, some liquor also falling onto the soil. In some special cases, solid active ingredients were first dissolved in dimethylformamide and then applied in a total liquor amount of 400 liters of water per hectare. For the postemergence treatment, the plants were first grown to a height of from 3 to 10 cm before being treated. With grasses, the first growth was cut, and the new growth treated 2 to 3 days after cutting. The temperature requirements of the plants were taken into account by placing them in cooler or warmer sections of the greenhouse. The experiments were run for from 4 to 6 weeks, during which time the plants were tended and their reaction to the various treatments was assessed.
# (§2) The application rates are given in kg/ha of active ingredient, regardless of the method of application and the amount of water used.
# (§3) A 0 to 100 scale was used for the evaluation, 0 denoting normal emergence or no damage (or no inhibition), and 100 denoting non-emergence or complete destruction of the plants. A distinction should be made in the influence on growth between desired changes without any appreciable disadvantageous phytotoxic effects (e.g., purely growth-regulating effects) and those of a phytotoxic herbicical character.
# Lam. spp. = test: as above; format: in vivo
# Procedure: as §1, §2, §3
# Cyper. esc. = test: as above; format: in vivo, Cyperus esculentus
# Procedure: as §1, §2, §3
# Solan. nig. = test: as above; format: in vivo, Solanum nigrum
# Procedure: as §1, §2, §3
# Echin. c.g. = test: as above; format: in vivo, Echinochloa crus galli
# Procedure: as §1, §2, §3
# Tritic. aestiv. = test: Shoot inhibition, pre- and postemergence treatment (table 28); format: in vivo; settings: post-emergence, read-out: % shoot inhibition
# Procedure: as §1, §2, §3
# Glycine max = test: as above; format: in vivo; settings: post-emergence, read-out: % shoot inhibition; for inhibition at 1000 g/ha: 1.0 kg/ha PRE; for inhibition at 2000 g/ha: 2.0 kg/ha PRE
# Procedure: as §1, §2, §3
# Poa prat. = test: as above; format: in vivo; settings: Poa pratensis, post-emergence, read-out: % shoot inhibition
# Procedure: as §1, §2, §3
# Euphorbia genic. = test: as above; format: in vivo, Euphorbia geniculata; settings: post-emergence, read-out: % shoot inhibition; for inhibition at 1000 g/ha: 1.0 kg/ha PRE; for inhibition at 2000 g/ha: 2.0 kg/ha PRE
# Procedure: as §1, §2, §3
# Cynodon dactyl. = test: as above; format: in vivo, Cynodon dactylon; settings: post-emergence, from seed, read-out: % shoot inhibition
# Procedure: as §1, §2, §3
# Hordeum vulg. = test: as above; format: in vivo, Hordeum vulgare; settings: post-emergence, read-out: % shoot inhibition
# Procedure: as §1, §2, §3
# Arachys hypog. = test: as above; format: in vivo, Arachys hypogaea; settings: post-emergence, read-out: % shoot inhibition
# Procedure: as §1, §2, §3
# Cynodon dact. (seed) = test: Herbicidal action, pre- and postemergence application in the greenhouse; format: in vivo, Cynodon dactylon
# Procedure: as §1, §2, §3
# Sinapis alba = test: as above; format: in vivo; settings: post-emergence, read-out: % damage
# Procedure: as §1, §2, §3
# Lolium mult. = test: as above; format: in vivo; settings: Lolium, post-emergence, read-out: % damage
# Procedure: as §1, §2, §3
# Euph. gen. = test: as above; format: in vivo, Euphorbia geniculata; settings: 1.0 kg/ha PRE
# Procedure: as §1, §2, §3
# Galium apar. = test: as above; format: in vivo, Galium aparine; settings: post-emergence, 3.0 kg/ha POST, read-out: % damage
# Procedure: as §1, §2, §3
# Ipom. spp. = test: as above; format: in vivo, Ipomoea spp.; settings: Ipomoea, post-emergence; 3.0 kg/ha POST; read-out: % damage
# Procedure: as §1, §2, §3
# Mentha piper. = test: as above; format: in vivo; settings: post-emergence; 3.0 kg/ha POST; read-out: % damage
# Procedure: as §1, §2, §3
smiles,measurement,setting,value
BrC1C(Br)C2CC1C1N=NC21 (stereo not drawn) [drawing 430],% damage,Setar. spp.; 2.0 kg/ha PRE,100%
same,% damage,Setar. spp.; 4.0 kg/ha PRE,100%
same,% damage,Setar. spp.; 8.0 kg/ha PRE,100%
same,% damage,Lam. spp.; 2.0 kg/ha PRE,95%
same,% damage,Lam. spp.; 4.0 kg/ha PRE,95%
same,% damage,Lam. spp.; 8.0 kg/ha PRE,95%
same,% damage,Cyper. esc.; 2.0 kg/ha PRE,20%
same,% damage,Cyper. esc.; 4.0 kg/ha PRE,55%
same,% damage,Cyper. esc.; 8.0 kg/ha PRE,70%
same,% damage,Solan. nig.; 2.0 kg/ha PRE,95%
same,% damage,Solan. nig.; 4.0 kg/ha PRE,95%
same,% damage,Solan. nig.; 8.0 kg/ha PRE,95%
same,% damage,Echin. c.g.; 2.0 kg/ha PRE,50%
same,% damage,Echin. c.g.; 4.0 kg/ha PRE,80%
same,% damage,Echin. c.g.; 8.0 kg/ha PRE,90%
c1ccc(C2=NNC3C4CC(C5N=NC45)C23)cc1 (stereo not drawn) [drawing 438],inhibition at 1000 g/ha,Tritic. aestiv.; 1.0 kg/ha POST,10%
same,inhibition at 1000 g/ha,Tritic. aestiv.; 1.0 kg/ha PRE,30%
same,inhibition at 2000 g/ha,Tritic. aestiv.; 2.0 kg/ha POST,20%
same,inhibition at 2000 g/ha,Tritic. aestiv.; 2.0 kg/ha PRE,30%
same,inhibition at 1000 g/ha,Glycine max,10%
same,inhibition at 2000 g/ha,Glycine max,25%
same,inhibition at 1000 g/ha,Poa prat.; 1.0 kg/ha PRE,60%
same,inhibition at 2000 g/ha,Poa prat.; 2.0 kg/ha PRE,60%
same,inhibition at 1000 g/ha,Euphorbia genic.,10%
same,inhibition at 2000 g/ha,Euphorbia genic.,30%
same,inhibition at 1000 g/ha,Cynodon dactyl.; 1.0 kg/ha POST,13%
same,inhibition at 1000 g/ha,Cynodon dactyl.; 1.0 kg/ha PRE,10%
same,inhibition at 2000 g/ha,Cynodon dactyl.; 2.0 kg/ha POST,25%
same,inhibition at 2000 g/ha,Cynodon dactyl.; 2.0 kg/ha PRE,10%
same,inhibition at 1000 g/ha,Hordeum vulg.; 1.0 kg/ha POST,30%
same,inhibition at 1000 g/ha,Hordeum vulg.; 1.0 kg/ha PRE,25%
same,inhibition at 2000 g/ha,Hordeum vulg.; 2.0 kg/ha POST,30%
same,inhibition at 2000 g/ha,Hordeum vulg.; 2.0 kg/ha PRE,25%
same,inhibition at 1000 g/ha,Arachys hypog.; 1.0 kg/ha POST,20%
same,inhibition at 1000 g/ha,Arachys hypog.; 1.0 kg/ha PRE,10%
same,inhibition at 2000 g/ha,Arachys hypog.; 2.0 kg/ha POST,30%
same,inhibition at 2000 g/ha,Arachys hypog.; 2.0 kg/ha PRE,10%
CN(C)NC(=O)CCC(=O)O [drawing 439],inhibition at 1000 g/ha,Glycine max,0%
same,inhibition at 2000 g/ha,Glycine max,0%
same,inhibition at 1000 g/ha,Euphorbia genic.,0%
same,inhibition at 2000 g/ha,Euphorbia genic.,0%
same,inhibition at 1000 g/ha,Cynodon dactyl.; 1.0 kg/ha POST,20%
same,inhibition at 2000 g/ha,Cynodon dactyl.; 2.0 kg/ha POST,20%
same,inhibition at 1000 g/ha,Arachys hypog.; 1.0 kg/ha POST,30%
same,inhibition at 1000 g/ha,Arachys hypog.; 1.0 kg/ha PRE,50%
same,inhibition at 2000 g/ha,Arachys hypog.; 2.0 kg/ha POST,30%
same,inhibition at 2000 g/ha,Arachys hypog.; 2.0 kg/ha PRE,50%
BrC1C(Br)C2CC1C1N=NC21 (stereo not drawn) [drawing 442],% damage,Cynodon dact. (seed); 1.0 kg/ha PRE,100%
same,pest or weed control at 3000 g/ha,Sinapis alba; 3.0 kg/ha POST,100%
same,pest or weed control at 3000 g/ha,Sinapis alba; 3.0 kg/ha PRE,70%
same,pest or weed control at 3000 g/ha,Lolium mult.; 3.0 kg/ha POST,100%
same,pest or weed control at 3000 g/ha,Lolium mult.; 3.0 kg/ha PRE,40%
same,% damage,Euph. gen.,90%
c1ccc(C2=NOC3C4CC(C5N=NC45)C23)cc1 (stereo not drawn) [drawing 453],pest or weed control at 3000 g/ha,Galium apar.,95%
same,pest or weed control at 3000 g/ha,Ipom. spp.,100%
same,% damage,"Cynodon dact. (seed); appln. rate 2 kg/ha, POST line",100%
same,pest or weed control at 3000 g/ha,Mentha piper.,75%
same,pest or weed control at 3000 g/ha,Sinapis alba; 3.0 kg/ha PRE,90%
same,pest or weed control at 3000 g/ha,Lolium mult.; 3.0 kg/ha POST,100%
same,pest or weed control at 3000 g/ha,Lolium mult.; 3.0 kg/ha PRE,100%
